Several values for one entry are separate records, joined by “and”; a condition that tells them apart may be missing. Equal entries are not always repeated. Toxic doses and inconclusive results are not listed. Cut-off read from the data, not from the text of the source: active = T/C of 150% or more; inactive = T/C below 125%.
Test system: L1210 leukemia ip in BDF1 mice, survival T/C
Assay: NCI In Vivo Anticancer Drug Screen. Data for tumor model L1210 Leukemia (intraperitoneal) in B6D2F1 (BDF1) mice
Settings: endpoint: mean survival time, higher = longer survival
How it was run: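 Mice bearing the transplanted tumor received compound or vehicle. Survival of the treated group was divided by that of the vehicle-treated control group to give the ratio.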

[1] = dose: 100.0 mg/kg/injection, schedule: Q01DX009 (ip), vehicle: saline
[2] = dose: 100.0 mg/kg/injection, schedule: Q04DX003 (ip), vehicle: saline
[3] = dose: 200.0 mg/kg/injection, schedule: Q01DX009 (ip), vehicle: saline
[4] = dose: 200.0 mg/kg/injection, schedule: Q04DX003 (ip), vehicle: saline
[5] = dose: 100.0 mg/kg/injection, schedule: Q01DX001 (ip), vehicle: carboxymethylcellulose (CMC)
[6] = dose: 200.0 mg/kg/injection, schedule: Q01DX001 (ip), vehicle: carboxymethylcellulose (CMC)
[7] = dose: 400.0 mg/kg/injection, schedule: Q01DX001 (ip), vehicle: carboxymethylcellulose (CMC)
[8] = dose: 100.0 mg/kg/injection, schedule: Q01DX009 (ip), vehicle: Klucel (hydroxypropylcellulose) (HPC)
[9] = dose: 100.0 mg/kg/injection, schedule: Q04DX003 (ip), vehicle: Klucel (hydroxypropylcellulose) (HPC)
[10] = dose: 200.0 mg/kg/injection, schedule: Q04DX003 (ip), vehicle: Klucel (hydroxypropylcellulose) (HPC)
[11] = dose: 400.0 mg/kg/injection, schedule: Q04DX003 (ip), vehicle: Klucel (hydroxypropylcellulose) (HPC)
[12] = dose: 400.0 mg/kg/injection, schedule: Q04DX003 (ip), vehicle: saline
[13] = dose: 75.0 mg/kg/injection, schedule: Q01DX001 (ip), vehicle: saline
[14] = dose: 150.0 mg/kg/injection, schedule: Q01DX001 (ip), vehicle: saline
[15] = dose: 300.0 mg/kg/injection, schedule: Q01DX001 (ip), vehicle: saline

Measured: T/C

C=CCNP(=O)(OCC)OCC
inactive: dose: 12.5 mg/kg/injection, schedule: Q01DX009 (ip), vehicle: saline 101 % of control | dose: 12.5 mg/kg/injection, schedule: Q04DX003 (ip), vehicle: saline 104 % of control | dose: 25.0 mg/kg/injection, schedule: Q01DX009 (ip), vehicle: saline 87 % of control | dose: 25.0 mg/kg/injection, schedule: Q04DX003 (ip), vehicle: saline 104 % of control | dose: 50.0 mg/kg/injection, schedule: Q04DX003 (ip), vehicle: saline 104 % of control | [1] 104 % of control | [2] 101 % of control | [3] 109 % of control | [4] 115 % of control

Nc1nc(N)c(N)c(Nc2ccc(O)cc2)n1
inactive: dose: 100.0 mg/kg/injection, schedule: Q01DX Z (ip), vehicle: saline 102 % of control

CCCCCCc1cc(N=Nc2ccc(S(=O)(=O)Nc3cc(C)nc(C)n3)cc2)c(O)cc1O
inactive: [5] 101 % of control | [6] 95 % of control | [7] 95 % of control

O=C1CC(=O)N(Cc2ccccc2)C(=O)N1Cc1ccccc1
inactive: [5] 86 % of control | [6] 92 % of control | [7] 90 % of control

O=C(O)/C=C\Br
inactive: dose: 25.0 mg/kg/injection, schedule: Q01DX009 (ip), vehicle: Klucel (hydroxypropylcellulose) (HPC) 91 % of control | dose: 50.0 mg/kg/injection, schedule: Q01DX005 (ip), vehicle: Klucel (hydroxypropylcellulose) (HPC) 95 % of control | dose: 50.0 mg/kg/injection, schedule: Q01DX009 (ip), vehicle: Klucel (hydroxypropylcellulose) (HPC) 106 % of control | dose: 100.0 mg/kg/injection, schedule: Q01DX005 (ip), vehicle: Klucel (hydroxypropylcellulose) (HPC) 103 % of control | [8] 98 % of control

Cc1cccc(NC(=O)Nc2ccccc2)c1C
inactive: [8] 104 % of control | [9] 101 % of control | dose: 200.0 mg/kg/injection, schedule: Q01DX009 (ip), vehicle: Klucel (hydroxypropylcellulose) (HPC) 96 % of control | [10] 95 % of control | dose: 400.0 mg/kg/injection, schedule: Q01DX009 (ip), vehicle: Klucel (hydroxypropylcellulose) (HPC) 104 % of control | [11] 98 % of control

OCC(O)c1ccccn1 (stereo unspecified)
inactive: [2] 107 % of control | [4] 94 % of control | [12] 94 % of control

O=C1c2ccccc2C(=O)N1CC(=O)N(C(=O)NC1CCCCC1)C1CCCCC1
inactive: dose: 100.0 mg/kg/injection, schedule: Q01DX001 (ip), vehicle: water 109 % of control | dose: 100.0 mg/kg/injection, schedule: Q01DX009 (ip), vehicle: water 103 % of control | dose: 100.0 mg/kg/injection, schedule: Q04DX003 (ip), vehicle: water 94 % of control | dose: 200.0 mg/kg/injection, schedule: Q01DX001 (ip), vehicle: water 104 % of control | dose: 200.0 mg/kg/injection, schedule: Q01DX009 (ip), vehicle: water 95 % of control | dose: 200.0 mg/kg/injection, schedule: Q04DX003 (ip), vehicle: water 96 % of control | dose: 400.0 mg/kg/injection, schedule: Q01DX001 (ip), vehicle: water 98 % of control | dose: 400.0 mg/kg/injection, schedule: Q01DX009 (ip), vehicle: water 103 % of control | dose: 400.0 mg/kg/injection, schedule: Q04DX003 (ip), vehicle: water 97 % of control

COc1ccc(/C=C(C)/C=N/NC(=O)c2ccncc2)cc1OC
inactive: dose: 100.0 mg/kg/injection, schedule: Q04DX003 (ip), vehicle: saline with Tween-80 98 % of control | dose: 200.0 mg/kg/injection, schedule: Q04DX003 (ip), vehicle: saline with Tween-80 97 % of control | dose: 400.0 mg/kg/injection, schedule: Q04DX003 (ip), vehicle: saline with Tween-80 103 % of control

COc1ccc2c(c1)c(CC(=O)O)c(Br)n2Cc1ccccc1
inactive: dose: 100.0 mg/kg/injection, schedule: Q01DX001 (ip), vehicle: Klucel (hydroxypropylcellulose) (HPC) 112 % of control | [9] 98 % of control | dose: 200.0 mg/kg/injection, schedule: Q01DX001 (ip), vehicle: Klucel (hydroxypropylcellulose) (HPC) 112 % of control | [10] 100 % of control | dose: 400.0 mg/kg/injection, schedule: Q01DX001 (ip), vehicle: Klucel (hydroxypropylcellulose) (HPC) 101 % of control | [11] 102 % of control

CN1C(=O)CN=C(c2ccccn2)c2cc(Cl)ccc21
inactive: dose: 100.0 mg/kg/injection, schedule: Q01DX001 (ip), vehicle: saline sonified 112 % of control | dose: 200.0 mg/kg/injection, schedule: Q01DX001 (ip), vehicle: saline sonified 96 % of control | dose: 400.0 mg/kg/injection, schedule: Q01DX001 (ip), vehicle: saline sonified 103 % of control

Cc1ccc(OC(=O)C2=C(C(=O)Oc3ccc(C)cc3)CCC2)cc1
inactive: [13] 95 % of control | [14] 97 % of control | [15] 95 % of control

Cc1ccc(NC(=S)Nc2ccccc2)cc1Cl
inactive: dose: 100.0 mg/kg/injection, schedule: Q04DX002 (ip), vehicle: Klucel (hydroxypropylcellulose) (HPC) 106 % of control | dose: 200.0 mg/kg/injection, schedule: Q04DX002 (ip), vehicle: Klucel (hydroxypropylcellulose) (HPC) 100 % of control | dose: 400.0 mg/kg/injection, schedule: Q04DX002 (ip), vehicle: Klucel (hydroxypropylcellulose) (HPC) 100 % of control

F[Si](c1ccccc1)(c1ccccc1)c1ccccc1
inactive: dose: 37.5 mg/kg/injection, schedule: Q01DX009 (ip), vehicle: saline 88 % of control | [13] 93 % of control | dose: 75.0 mg/kg/injection, schedule: Q01DX009 (ip), vehicle: saline 95 % of control | [14] 102 % of control | dose: 150.0 mg/kg/injection, schedule: Q01DX009 (ip), vehicle: saline 95 % of control | [15] 93 % of control

Cc1ccc(NP(=O)(Oc2c(F)c(F)c(F)c(F)c2F)N(CCCl)CCCl)cc1 (stereo unspecified)
inactive: dose: 62.5 mg/kg/injection, schedule: Q01DX001 (ip), vehicle: other 100 % of control | dose: 125.0 mg/kg/injection, schedule: Q01DX001 (ip), vehicle: other 112 % of control | dose: 250.0 mg/kg/injection, schedule: Q01DX001 (ip), vehicle: other 106 % of control | dose: 500.0 mg/kg/injection, schedule: Q01DX001 (ip), vehicle: other 108 % of control

COC(=O)c1ccc(N(C)CCC(=O)CN)cc1
inactive: dose: 100.0 mg/kg/injection, schedule: Q01DX001 (ip), vehicle: saline 98 % of control | dose: 200.0 mg/kg/injection, schedule: Q01DX001 (ip), vehicle: saline 101 % of control | dose: 400.0 mg/kg/injection, schedule: Q01DX001 (ip), vehicle: saline 104 % of control

CCOC(=O)c1ccc(NCC(C)(C)[N+](=O)[O-])cc1
inactive: [1] 102 % of control | [2] 95 % of control | [3] 105 % of control | [4] 107 % of control | dose: 400.0 mg/kg/injection, schedule: Q01DX009 (ip), vehicle: saline 96 % of control and 105 % of control | [12] 91 % of control

NC(=O)c1cc(NC(=O)c2ccc(C(=O)Nc3cc(C(N)=O)cc(C4=NCCN4)c3)cc2)cc(C2=NCCN2)c1
inactive: dose: 4.0 mg/kg/injection, schedule: Q01DX015 (ip), vehicle: methylcellulose (MC) 103 % of control | dose: 8.0 mg/kg/injection, schedule: Q01DX015 (ip), vehicle: methylcellulose (MC) 92 % of control | dose: 16.0 mg/kg/injection, schedule: Q01DX015 (ip), vehicle: methylcellulose (MC) 105 % of control | dose: 62.5 mg/kg/injection, schedule: Q01DX015 (ip), vehicle: methylcellulose (MC) 116 % of control | dose: 125.0 mg/kg/injection, schedule: Q01DX015 (ip), vehicle: methylcellulose (MC) 117 % of control

From PubChem BioAssay AID248 (DTP/NCI, 2004)
